The source made the active and inactive calls. No cut-off for these calls is given here.
What was measured:
[1] = biological target: T1, CREB-binding protein/Histone acetyltransferase p300 (Homo sapiens, UniProt Q09472+Q92793); assay: Inhibition of CBP/EP300 in human LP-1 cells assessed as decrease in MYC expression at 5 uM measured after 4 hrs by RT-PCR analysis relative to DMSO control; format: cell-based
[2] = Antitumor activity against human MOLM16 cells xenografted in SCID beige mouse assessed as tumor growth inhibition at 50 mg/kg, po BID administered through gavage for 21 days; format: functional; conditions: read-out: TGI
DOHH-2 = assay: Antiproliferative activity against human DOHH2 cells measured after 6 days by CellTiter-Glo assay; format: functional, cell-based
[3] = Clearance in nu/nu mouse at 1 mg/kg, iv by LC-MS/MS analysis; format: ADME, organism-based; conditions: in vivo
[4] = biological target: T1, CREB-binding protein/Histone acetyltransferase p300; assay: Inhibition of CBP/EP300 in human MOLM16 cells assessed as suppression of MYB expression at 5 uM measured after 4 hrs by RT-PCR analysis relative to DMSO control; format: cell-based
[5] = fCmax in nu/nu mouse at 100 mg/kg, po by LC-MS/MS analysis; format: ADME, organism-based; conditions: in vivo
[6] = biological target: T1, CREB-binding protein/Histone acetyltransferase p300; assay: Inhibition of CBP/EP300 in human MOLM16 cells assessed as suppression of MCL1 expression at 5 uM measured after 4 hrs by RT-PCR analysis relative to DMSO control; format: cell-based
[7] = biological target: T1, CREB-binding protein/Histone acetyltransferase p300; assay: Inhibition of CBP/EP300 in human MOLM16 cells assessed as suppression of BCL2 expression at 5 uM measured after 4 hrs by RT-PCR analysis relative to DMSO control; format: cell-based
KMS26 = assay: Antiproliferative activity against human KMS26 cells measured after 6 days by CellTiter-Glo assay; format: functional, cell-based
MOLM16 = assay: Antitumor activity against human MOLM16 cells xenografted in SCID beige mouse assessed as tumor growth inhibition compound administered through oral gavage twice daily for 21 days; format: functional, cell-based
THP2 = assay: Antiproliferative activity against human THP2 cells measured after 6 days by CellTiter-Glo assay; format: functional, cell-based
[8] = Volume of distribution at steady state in nu/nu mouse at 1 mg/kg, iv or 100 mg/kg, po by LC-MS/MS analysis; format: ADME, organism-based; conditions: in vivo, read-out: Vdss
[9] = biological target: T1, CREB-binding protein/Histone acetyltransferase p300; assay: Inhibition of CBP/EP300 in human HL60 cells assessed as decrease in MYC expression at 5 uM measured after 4 hrs by RT-PCR analysis relative to DMSO control; format: cell-based; conditions: HL-60

T1 sequence (Q09472 whole entry, looked up): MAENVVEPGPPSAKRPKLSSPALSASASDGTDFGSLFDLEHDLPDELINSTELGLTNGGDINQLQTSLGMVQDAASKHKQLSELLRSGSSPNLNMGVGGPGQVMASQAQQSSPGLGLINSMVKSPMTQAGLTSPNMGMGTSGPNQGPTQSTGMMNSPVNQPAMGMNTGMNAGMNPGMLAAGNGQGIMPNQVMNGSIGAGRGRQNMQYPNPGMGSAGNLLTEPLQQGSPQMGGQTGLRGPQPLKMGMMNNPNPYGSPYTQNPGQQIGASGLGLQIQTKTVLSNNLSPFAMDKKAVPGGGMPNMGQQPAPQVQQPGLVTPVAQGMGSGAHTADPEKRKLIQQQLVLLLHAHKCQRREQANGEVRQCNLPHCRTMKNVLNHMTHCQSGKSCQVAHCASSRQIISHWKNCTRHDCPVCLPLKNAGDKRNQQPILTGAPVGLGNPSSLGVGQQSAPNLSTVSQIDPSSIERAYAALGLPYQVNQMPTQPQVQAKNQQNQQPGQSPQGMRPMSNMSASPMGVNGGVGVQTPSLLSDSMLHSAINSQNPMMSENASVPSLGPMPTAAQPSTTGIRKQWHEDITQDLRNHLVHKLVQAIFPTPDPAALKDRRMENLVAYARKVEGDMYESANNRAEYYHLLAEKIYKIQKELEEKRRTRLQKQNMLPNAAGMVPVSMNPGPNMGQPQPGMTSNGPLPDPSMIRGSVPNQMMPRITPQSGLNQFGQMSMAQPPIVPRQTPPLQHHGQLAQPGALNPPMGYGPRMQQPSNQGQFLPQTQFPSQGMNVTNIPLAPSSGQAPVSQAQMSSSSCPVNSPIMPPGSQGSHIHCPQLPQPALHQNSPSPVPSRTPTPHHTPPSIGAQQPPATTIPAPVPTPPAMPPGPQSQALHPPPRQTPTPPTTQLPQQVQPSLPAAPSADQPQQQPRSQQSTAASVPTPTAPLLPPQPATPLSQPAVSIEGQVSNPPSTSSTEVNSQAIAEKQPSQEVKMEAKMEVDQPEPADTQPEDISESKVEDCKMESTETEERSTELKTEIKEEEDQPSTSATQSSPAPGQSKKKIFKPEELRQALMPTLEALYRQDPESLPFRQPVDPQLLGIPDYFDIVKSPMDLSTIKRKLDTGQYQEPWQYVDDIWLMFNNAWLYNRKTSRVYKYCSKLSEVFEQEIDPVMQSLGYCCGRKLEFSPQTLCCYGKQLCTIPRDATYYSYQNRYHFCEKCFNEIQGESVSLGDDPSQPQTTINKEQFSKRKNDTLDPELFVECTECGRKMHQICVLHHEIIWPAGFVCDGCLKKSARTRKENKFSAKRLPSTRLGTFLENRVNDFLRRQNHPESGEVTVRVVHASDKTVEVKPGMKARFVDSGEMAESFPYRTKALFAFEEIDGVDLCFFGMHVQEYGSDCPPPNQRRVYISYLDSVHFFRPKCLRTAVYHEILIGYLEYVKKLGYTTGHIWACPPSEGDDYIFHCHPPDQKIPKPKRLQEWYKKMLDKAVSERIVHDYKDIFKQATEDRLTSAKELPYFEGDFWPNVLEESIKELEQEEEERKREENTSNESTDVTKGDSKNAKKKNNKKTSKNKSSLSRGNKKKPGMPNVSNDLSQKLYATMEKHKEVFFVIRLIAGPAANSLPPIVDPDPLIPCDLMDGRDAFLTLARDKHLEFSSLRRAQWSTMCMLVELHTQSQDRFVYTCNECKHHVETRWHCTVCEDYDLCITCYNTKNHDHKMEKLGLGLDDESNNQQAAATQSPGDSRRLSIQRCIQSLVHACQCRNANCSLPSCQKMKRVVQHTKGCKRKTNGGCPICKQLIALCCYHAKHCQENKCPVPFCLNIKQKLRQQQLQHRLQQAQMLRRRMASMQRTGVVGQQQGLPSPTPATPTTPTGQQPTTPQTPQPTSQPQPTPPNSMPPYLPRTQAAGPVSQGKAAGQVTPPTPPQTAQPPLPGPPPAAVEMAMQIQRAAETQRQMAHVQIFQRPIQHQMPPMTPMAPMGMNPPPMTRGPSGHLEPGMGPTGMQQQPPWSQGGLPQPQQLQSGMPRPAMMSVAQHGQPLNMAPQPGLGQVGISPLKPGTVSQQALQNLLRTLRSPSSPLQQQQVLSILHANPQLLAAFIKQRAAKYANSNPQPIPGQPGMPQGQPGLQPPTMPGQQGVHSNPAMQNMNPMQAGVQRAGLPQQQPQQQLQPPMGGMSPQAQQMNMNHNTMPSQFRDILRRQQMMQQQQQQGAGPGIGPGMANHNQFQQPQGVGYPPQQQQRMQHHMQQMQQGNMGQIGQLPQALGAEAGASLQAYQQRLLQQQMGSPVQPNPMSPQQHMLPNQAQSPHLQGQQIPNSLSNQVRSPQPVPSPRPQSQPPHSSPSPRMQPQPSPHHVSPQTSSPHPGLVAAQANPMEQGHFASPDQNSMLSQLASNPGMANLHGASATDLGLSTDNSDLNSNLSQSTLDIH
T1 sequence (Q92793 whole entry, looked up): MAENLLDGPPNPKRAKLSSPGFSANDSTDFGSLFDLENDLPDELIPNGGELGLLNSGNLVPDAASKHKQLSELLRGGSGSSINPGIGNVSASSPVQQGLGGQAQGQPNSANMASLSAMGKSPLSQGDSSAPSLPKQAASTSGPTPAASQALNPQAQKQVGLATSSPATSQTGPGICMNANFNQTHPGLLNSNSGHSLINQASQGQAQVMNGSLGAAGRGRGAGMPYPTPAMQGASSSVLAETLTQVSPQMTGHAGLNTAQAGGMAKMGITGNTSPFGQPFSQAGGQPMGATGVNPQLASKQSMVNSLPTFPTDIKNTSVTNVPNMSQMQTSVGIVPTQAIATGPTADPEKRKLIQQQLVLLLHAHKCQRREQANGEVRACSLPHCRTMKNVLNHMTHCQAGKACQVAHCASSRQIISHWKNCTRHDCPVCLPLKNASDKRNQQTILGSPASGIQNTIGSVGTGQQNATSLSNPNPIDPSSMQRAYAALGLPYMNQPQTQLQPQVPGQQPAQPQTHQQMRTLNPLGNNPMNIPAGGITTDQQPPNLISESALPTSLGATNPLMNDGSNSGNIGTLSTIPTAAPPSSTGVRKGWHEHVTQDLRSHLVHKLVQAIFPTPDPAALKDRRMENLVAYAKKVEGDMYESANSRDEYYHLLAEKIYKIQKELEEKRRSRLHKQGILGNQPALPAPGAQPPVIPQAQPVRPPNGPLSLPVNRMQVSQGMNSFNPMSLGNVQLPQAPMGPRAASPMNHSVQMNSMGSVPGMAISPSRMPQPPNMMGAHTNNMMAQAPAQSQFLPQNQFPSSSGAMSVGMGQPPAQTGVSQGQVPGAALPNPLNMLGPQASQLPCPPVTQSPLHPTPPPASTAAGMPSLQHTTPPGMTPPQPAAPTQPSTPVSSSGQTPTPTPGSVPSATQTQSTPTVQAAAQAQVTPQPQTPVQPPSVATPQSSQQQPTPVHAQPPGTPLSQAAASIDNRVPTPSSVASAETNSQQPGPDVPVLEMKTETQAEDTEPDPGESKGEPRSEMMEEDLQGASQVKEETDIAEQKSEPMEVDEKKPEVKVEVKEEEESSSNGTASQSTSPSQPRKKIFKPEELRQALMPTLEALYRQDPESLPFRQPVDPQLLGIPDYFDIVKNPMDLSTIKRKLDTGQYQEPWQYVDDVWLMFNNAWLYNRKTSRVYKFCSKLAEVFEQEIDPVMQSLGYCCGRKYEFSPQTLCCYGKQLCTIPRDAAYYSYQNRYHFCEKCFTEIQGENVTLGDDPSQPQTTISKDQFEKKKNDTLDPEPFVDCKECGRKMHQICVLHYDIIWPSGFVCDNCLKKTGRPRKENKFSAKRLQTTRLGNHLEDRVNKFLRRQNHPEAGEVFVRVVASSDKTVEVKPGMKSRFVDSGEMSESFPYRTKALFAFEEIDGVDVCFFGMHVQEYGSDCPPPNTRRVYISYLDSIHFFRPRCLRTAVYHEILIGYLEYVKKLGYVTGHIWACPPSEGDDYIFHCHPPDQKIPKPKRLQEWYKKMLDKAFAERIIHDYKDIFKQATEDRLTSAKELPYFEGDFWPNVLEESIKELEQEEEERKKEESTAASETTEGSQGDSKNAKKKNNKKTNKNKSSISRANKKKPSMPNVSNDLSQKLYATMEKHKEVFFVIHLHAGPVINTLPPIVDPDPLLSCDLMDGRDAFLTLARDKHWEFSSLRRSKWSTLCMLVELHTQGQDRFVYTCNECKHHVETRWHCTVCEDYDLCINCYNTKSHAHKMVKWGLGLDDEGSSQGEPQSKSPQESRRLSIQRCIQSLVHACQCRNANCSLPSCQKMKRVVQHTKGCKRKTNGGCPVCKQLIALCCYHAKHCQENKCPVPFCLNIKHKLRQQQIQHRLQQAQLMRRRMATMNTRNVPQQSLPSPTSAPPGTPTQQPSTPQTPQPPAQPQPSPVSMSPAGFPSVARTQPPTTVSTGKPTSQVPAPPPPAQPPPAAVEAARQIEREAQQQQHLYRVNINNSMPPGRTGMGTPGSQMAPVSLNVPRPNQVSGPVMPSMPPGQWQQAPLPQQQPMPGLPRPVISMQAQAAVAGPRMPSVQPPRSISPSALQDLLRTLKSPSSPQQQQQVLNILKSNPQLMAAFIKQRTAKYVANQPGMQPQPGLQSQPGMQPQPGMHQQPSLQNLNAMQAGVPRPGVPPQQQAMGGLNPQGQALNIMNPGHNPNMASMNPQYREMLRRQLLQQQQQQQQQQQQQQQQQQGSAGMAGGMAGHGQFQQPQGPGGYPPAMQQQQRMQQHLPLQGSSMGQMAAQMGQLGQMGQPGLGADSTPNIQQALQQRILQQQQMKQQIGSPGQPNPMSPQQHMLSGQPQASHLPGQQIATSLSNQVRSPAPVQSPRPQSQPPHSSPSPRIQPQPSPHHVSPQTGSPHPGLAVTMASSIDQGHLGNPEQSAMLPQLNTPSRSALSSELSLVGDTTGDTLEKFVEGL

- inhibition [1]: Active
- clearance [3]: 9.6 mL/min/kg
- inhibition [4]: Active
- fCmax [5]: 26 µM
- inhibition [6]: Active
- inhibition [7]: Active
- Vd [8]: 1.5 L/kg
- inhibition [9]: Active
Structure (SMILES): CC(=O)N1CCc2c(c(Nc3ccc(-c4cnn(C)c4)cc3F)nn2[C@@H]2CCOC2)C1
- inhibition in vivo at 50 mg/kg [2]: 102%
- Activity (DOHH-2): Active
- Activity (KMS26): Active
- TGI (MOLM16): Dose-dependent effect
- Activity (THP2): Active

Source: ChEMBL document CHEMBL3864133, “Discovery of a Potent and Selective in Vivo Probe (GNE-272) for the Bromodomains of CBP/EP300” (J Med Chem, 2016)
